Tests used:
[1] = target: N-glycosylase/DNA lyase (Homo sapiens) (UniProt O15527);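 also: OGG1 cleavage of a quenched duplex DNA oligonucleotide, coupled to APE1 for strand incision, read as fluorescence at 594 nm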
Description: Inhibition of OGG1 by quantifying inhibition of OGG1-mediated cleavage and dissociation of quenched duplex DNA oligonucleotides, measured as fluorescence at 594 nm. To generate a functional strand incision and increase turn-over this assay is coupled to APE1.

[2] = target: G/T mismatch-specific thymine DNA glycosylase (Homo sapiens) (UniProt Q13569); conditions: Hit No;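 also: human TDG cleavage of quenched duplex DNA oligonucleotides coupled to APE1, strand release read as fluorescence at 594 nm, inhibition of TDG activity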
Description: Inhibition of TDG by quantifying inhibition of TDG-mediated cleavage and dissociation of quenched duplex DNA oligonucleotides, measured as fluorescence at 594 nm. To generate a functional strand incision and increase turn-over this assay is coupled to APE1.

[3] = target: Endonuclease 8-like 1 (Homo sapiens) (UniProt Q96FI4); conditions: Hit No;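 also: fluorescence at 594 nm from quenched duplex DNA oligonucleotides released by NEIL1 cleavage and strand separation, reported as reduction of this enzyme activity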
Description: Inhibition of NEIL1 by quantifying inhibition of NEIL1-mediated cleavage and dissociation of quenched duplex DNA oligonucleotides, measured as fluorescence at 594 nm.

[4] = target: T1, Endonuclease 8-like 2 (Homo sapiens) (UniProt Q969S2); conditions: Compound Concentration 10.0 uM, Hit No;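 also: fluorescence at 594 nm reports NEIL2 cutting and release of a quenched double-stranded DNA oligo substrate, reduced signal read as inhibition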
T1 sequence (whole entry): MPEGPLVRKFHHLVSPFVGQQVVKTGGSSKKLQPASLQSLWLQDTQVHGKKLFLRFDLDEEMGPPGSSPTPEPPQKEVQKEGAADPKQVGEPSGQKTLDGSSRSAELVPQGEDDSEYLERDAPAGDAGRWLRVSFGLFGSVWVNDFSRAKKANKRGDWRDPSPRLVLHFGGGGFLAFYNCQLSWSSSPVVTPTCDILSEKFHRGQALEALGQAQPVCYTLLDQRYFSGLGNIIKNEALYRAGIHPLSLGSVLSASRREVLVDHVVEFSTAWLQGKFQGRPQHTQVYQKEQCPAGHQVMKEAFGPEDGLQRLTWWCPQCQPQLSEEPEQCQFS
Description: Inhibition of NEIL2 by quantifying inhibition of NEIL2-mediated cleavage and dissociation of quenched duplex DNA oligonucleotides, measured as fluorescence at 594 nm.

[5] = target: T2, Single-strand selective monofunctional uracil DNA glycosylase (Homo sapiens) (UniProt Q53HV7); conditions: Hit No;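 also: enzymatic SMUG1 assay coupled with APE1, reading fluorescence at 594 nm released when a quenched double-stranded DNA oligonucleotide substrate is cleaved and separated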
T2 sequence (whole entry): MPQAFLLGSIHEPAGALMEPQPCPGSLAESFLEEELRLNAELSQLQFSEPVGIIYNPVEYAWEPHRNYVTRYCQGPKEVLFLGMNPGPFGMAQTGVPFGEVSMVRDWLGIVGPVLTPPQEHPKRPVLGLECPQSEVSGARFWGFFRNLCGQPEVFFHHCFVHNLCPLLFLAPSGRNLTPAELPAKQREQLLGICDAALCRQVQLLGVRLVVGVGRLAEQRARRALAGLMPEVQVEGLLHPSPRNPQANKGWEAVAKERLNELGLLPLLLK
Description: Inhibition of SMUG1 by quantifying inhibition of SMUG1-mediated cleavage and dissociation of quenched duplex DNA oligonucleotides, measured as fluorescence at 594 nm. To generate a functional strand incision and increase turn-over this assay is coupled to APE1.

[6] = target: T3, Endonuclease III-like protein 1 (Homo sapiens) (UniProt P78549); conditions: Hit No;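 also: enzyme assay tracking NTHL1 cutting and release of a quenched double-stranded DNA oligo substrate, read as fluorescence at 594 nm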
T3 sequence (whole entry): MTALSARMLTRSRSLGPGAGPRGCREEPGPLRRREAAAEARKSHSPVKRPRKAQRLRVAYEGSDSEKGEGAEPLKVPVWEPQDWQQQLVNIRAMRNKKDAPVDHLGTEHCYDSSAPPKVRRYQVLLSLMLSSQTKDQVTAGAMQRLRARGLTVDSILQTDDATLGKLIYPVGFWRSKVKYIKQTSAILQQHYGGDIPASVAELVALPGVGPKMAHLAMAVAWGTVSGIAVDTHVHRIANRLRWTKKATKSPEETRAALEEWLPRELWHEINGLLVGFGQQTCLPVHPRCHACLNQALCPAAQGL
Description: Inhibition of NTHL1 by quantifying inhibition of NTHL1-mediated cleavage and dissociation of quenched duplex DNA oligonucleotides, measured as fluorescence at 594 nm.

[7] = target: Uracil-DNA glycosylase (Homo sapiens) (UniProt P13051); conditions: Hit No;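 also: UNG excision on a quenched double-stranded DNA oligo probe, with APE1 added for strand incision and turnover, read as fluorescence at 594 nm as strands separate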
Description: Inhibition of UNG by quantifying inhibition of UNG-mediated cleavage and dissociation of quenched duplex DNA oligonucleotides, measured as fluorescence at 594 nm. To generate a functional strand incision and increase turn-over this assay is coupled to APE1.

[8] = target: Methyl-CpG-binding domain protein 4 (Homo sapiens) (UniProt O95243); conditions: Hit No;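 also: MBD4 activity read as fluorescence at 594 nm from cleavage and release of a quenched duplex DNA oligonucleotide, with APE1 coupled to incise the strand and raise turnover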
Description: Inhibition of MBD4 by quantifying inhibition of MBD4-mediated cleavage and dissociation of quenched duplex DNA oligonucleotides, measured as fluorescence at 594 nm. To generate a functional strand incision and increase turn-over this assay is coupled to APE1.

[9] = target: DNA-3-methyladenine glycosylase (Homo sapiens) (UniProt P29372); conditions: Compound Concentration 10.0 uM, Hit No;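 also: enzyme assay where MPG cuts a quenched duplex DNA oligonucleotide probe, paired with APE1 for strand incision and turnover, read as fluorescence at 594 nm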
Description: Inhibition of MPG by quantifying inhibition of MPG-mediated cleavage and dissociation of quenched duplex DNA oligonucleotides, measured as fluorescence at 594 nm. To generate a functional strand incision and increase turn-over this assay is coupled to APE1.

[10] = target: T4, Adenine DNA glycosylase (Homo sapiens) (UniProt Q9UIF7); conditions: Hit No;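 also: human MUTYH activity read as 594 nm fluorescence from cleavage and release of a quenched DNA duplex, coupled with APE1 for strand incision, lower signal meaning inhibition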
T4 sequence (whole entry): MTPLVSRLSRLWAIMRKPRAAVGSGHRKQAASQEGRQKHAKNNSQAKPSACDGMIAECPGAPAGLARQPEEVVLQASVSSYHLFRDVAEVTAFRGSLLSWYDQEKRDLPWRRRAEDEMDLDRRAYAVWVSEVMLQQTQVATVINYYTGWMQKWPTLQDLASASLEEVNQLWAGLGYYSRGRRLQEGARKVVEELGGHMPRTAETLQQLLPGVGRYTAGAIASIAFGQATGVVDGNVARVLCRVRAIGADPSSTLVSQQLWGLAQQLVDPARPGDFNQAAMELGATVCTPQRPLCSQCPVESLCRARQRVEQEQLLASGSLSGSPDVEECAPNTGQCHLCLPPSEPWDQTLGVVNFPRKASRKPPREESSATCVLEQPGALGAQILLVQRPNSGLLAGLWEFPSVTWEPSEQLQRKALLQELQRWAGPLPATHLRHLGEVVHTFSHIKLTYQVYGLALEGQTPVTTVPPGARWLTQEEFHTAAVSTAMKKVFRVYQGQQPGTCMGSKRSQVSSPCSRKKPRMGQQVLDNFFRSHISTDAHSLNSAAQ
Description: Inhibition of MUTYH by quantifying inhibition of MUTYH-mediated cleavage and dissociation of quenched duplex DNA oligonucleotides, measured as fluorescence at 594 nm. To generate a functional strand incision and increase turn-over this assay is coupled to APE1.

[11] = Compound Concentration 10.0 uM, Hit No

Chain of N-glycosylase/DNA lyase (Homo sapiens) (O15527 whole entry): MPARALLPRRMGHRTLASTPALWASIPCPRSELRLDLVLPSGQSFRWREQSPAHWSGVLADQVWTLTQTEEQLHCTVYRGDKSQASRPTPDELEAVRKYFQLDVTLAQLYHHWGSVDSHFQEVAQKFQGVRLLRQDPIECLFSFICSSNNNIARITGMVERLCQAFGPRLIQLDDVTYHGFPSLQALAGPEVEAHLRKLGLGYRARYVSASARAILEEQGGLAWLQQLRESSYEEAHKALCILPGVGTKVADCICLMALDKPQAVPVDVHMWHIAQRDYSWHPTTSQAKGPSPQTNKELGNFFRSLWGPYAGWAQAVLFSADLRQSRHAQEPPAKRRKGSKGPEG
Chain of Methyl-CpG-binding domain protein 4 (Homo sapiens) (O95243 whole entry, the tested form may be a part): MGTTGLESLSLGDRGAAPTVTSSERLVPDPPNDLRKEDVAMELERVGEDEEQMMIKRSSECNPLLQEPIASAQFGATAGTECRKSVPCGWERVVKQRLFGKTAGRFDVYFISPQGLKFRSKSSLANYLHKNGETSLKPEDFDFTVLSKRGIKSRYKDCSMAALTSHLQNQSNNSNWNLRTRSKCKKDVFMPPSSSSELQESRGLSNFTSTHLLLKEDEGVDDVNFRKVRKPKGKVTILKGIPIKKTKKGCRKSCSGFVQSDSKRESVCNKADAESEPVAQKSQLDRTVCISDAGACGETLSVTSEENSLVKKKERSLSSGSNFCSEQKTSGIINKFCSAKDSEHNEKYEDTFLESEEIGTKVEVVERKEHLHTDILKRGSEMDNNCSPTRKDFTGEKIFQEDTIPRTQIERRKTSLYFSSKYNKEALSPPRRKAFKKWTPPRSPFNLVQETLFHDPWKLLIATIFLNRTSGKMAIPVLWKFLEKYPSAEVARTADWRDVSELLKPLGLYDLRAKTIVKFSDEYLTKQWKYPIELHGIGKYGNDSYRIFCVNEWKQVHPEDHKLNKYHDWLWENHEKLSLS
Chain of Uracil-DNA glycosylase (Homo sapiens) (P13051 whole entry, the tested form may be a part): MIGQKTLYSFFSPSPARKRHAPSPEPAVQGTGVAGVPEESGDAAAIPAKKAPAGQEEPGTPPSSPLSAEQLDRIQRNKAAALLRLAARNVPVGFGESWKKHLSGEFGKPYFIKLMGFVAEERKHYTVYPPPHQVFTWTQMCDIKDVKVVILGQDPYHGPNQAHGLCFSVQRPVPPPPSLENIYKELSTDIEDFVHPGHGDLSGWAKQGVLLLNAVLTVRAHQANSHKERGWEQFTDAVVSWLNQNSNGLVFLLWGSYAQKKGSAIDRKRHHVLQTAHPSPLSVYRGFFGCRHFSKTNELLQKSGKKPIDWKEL
Chain of Endonuclease 8-like 1 (Homo sapiens) (Q96FI4 whole entry): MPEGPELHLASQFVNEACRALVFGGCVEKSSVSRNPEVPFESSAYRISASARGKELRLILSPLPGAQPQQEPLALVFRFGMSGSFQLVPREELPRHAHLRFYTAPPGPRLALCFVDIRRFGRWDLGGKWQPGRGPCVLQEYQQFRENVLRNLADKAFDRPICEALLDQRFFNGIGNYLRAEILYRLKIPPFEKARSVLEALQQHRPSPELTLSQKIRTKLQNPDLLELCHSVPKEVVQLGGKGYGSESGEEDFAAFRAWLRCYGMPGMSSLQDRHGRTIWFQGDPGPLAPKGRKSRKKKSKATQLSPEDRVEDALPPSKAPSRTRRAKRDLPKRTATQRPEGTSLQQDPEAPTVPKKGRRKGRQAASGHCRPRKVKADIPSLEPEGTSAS
Chain of DNA-3-methyladenine glycosylase (Homo sapiens) (P29372 whole entry): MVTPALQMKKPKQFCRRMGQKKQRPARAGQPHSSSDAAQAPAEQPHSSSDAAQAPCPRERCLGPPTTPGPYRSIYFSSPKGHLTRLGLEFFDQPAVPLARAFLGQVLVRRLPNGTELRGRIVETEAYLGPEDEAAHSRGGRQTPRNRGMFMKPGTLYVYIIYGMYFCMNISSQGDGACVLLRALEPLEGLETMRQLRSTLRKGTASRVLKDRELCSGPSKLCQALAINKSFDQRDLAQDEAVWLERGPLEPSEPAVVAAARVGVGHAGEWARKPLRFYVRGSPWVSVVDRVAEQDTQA
Chain of G/T mismatch-specific thymine DNA glycosylase (Homo sapiens) (Q13569 whole entry): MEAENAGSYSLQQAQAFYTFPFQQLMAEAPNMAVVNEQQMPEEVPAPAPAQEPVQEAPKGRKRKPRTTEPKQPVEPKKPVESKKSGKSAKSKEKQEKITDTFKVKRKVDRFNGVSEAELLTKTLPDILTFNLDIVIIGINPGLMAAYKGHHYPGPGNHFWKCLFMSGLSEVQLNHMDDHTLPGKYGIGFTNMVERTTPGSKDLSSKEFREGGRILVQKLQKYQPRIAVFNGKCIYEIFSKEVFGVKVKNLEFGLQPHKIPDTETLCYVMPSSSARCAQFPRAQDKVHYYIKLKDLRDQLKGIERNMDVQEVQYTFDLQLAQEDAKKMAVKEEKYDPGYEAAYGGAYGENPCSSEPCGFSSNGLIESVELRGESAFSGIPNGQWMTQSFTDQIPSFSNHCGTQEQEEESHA

## Cc1cc(Cn2cnc3c2C[C@@H](C(=O)O)N(C(=O)C(c2ccccc2)c2ccccc2)C3)ccc1N(C)C
[1]; [11]
  inhibition: 5.17%
[2]; Compound Concentration 10.0 uM
  inhibition: 25.8%
[3]; Compound Concentration 10.0 uM
  inhibition: 10.3%
[4]
  inhibition: -0.733%
[5]; Compound Concentration 10.0 uM
  inhibition: 7.18%
[6]; Compound Concentration 10.0 uM
  inhibition: -6.87%
[7]; Compound Concentration 10.0 uM
  inhibition: -2.82%
[8]; Compound Concentration 10.0 uM
  inhibition: 46%
[9]
  inhibition: 19.4%
[10]; Compound Concentration 10.0 uM
  inhibition: 20.9%

## CCCCCCCCc1ccc(CC[C@](N)(CO)COP(=O)(O)O)cc1
[1]; [11]
  inhibition: 0.481%
[2]; Compound Concentration 10.0 uM
  inhibition: 7.26%
[3]; Compound Concentration 10.0 uM
  inhibition: 9.14%
[4]
  inhibition: 6.75%
[5]; Compound Concentration 10.0 uM
  inhibition: 0.742%
[6]; Compound Concentration 10.0 uM
  inhibition: -3.94%
[7]; Compound Concentration 10.0 uM
  inhibition: -7.46%
[8]; Compound Concentration 10.0 uM
  inhibition: -2.75%
[9]
  inhibition: 7.62%
[10]; Compound Concentration 10.0 uM
  inhibition: 6.04%

## Cc1nc(-c2ccc(C(F)(F)F)cc2)sc1COc1ccc([C@H](CC(=O)O)c2ccon2)cc1
[1]; Compound Concentration 10.0 uM, Hit Yes
  inhibition: 41.1%
[2]; Compound Concentration 10.0 uM
  inhibition: 27%
[3]; Compound Concentration 10.0 uM
  inhibition: 3.95%
[4]
  inhibition: 2.26%
[5]; Compound Concentration 10.0 uM
  inhibition: 7.09%
[6]; Compound Concentration 10.0 uM
  inhibition: 16.6%
[7]; Compound Concentration 10.0 uM
  inhibition: -5.51%
[8]; Compound Concentration 10.0 uM
  inhibition: 20.8%
[9]
  inhibition: 3.92%
[10]; Compound Concentration 10.0 uM
  inhibition: 23.2%

## CS(=O)(=O)c1cccc(NC(=O)N(Cc2ccc(C(=O)Nc3nnn[nH]3)cc2)c2ccc(C3CCCCC3)cc2)c1
[1]; [11]
  inhibition: 18.7%
[2]; Compound Concentration 10.0 uM
  inhibition: 36.1%
[3]; Compound Concentration 10.0 uM
  inhibition: 1.57%
[4]
  inhibition: 14.7%
[5]; Compound Concentration 10.0 uM
  inhibition: 6.31%
[6]; Compound Concentration 10.0 uM
  inhibition: 7.79%
[7]; Compound Concentration 10.0 uM
  inhibition: -4.34%
[8]; Compound Concentration 10.0 uM
  inhibition: 45.7%
[9]
  inhibition: 26.7%
[10]; Compound Concentration 10.0 uM
  inhibition: 44.3%

## O=C(O)COc1cccc(-c2ocnc2-c2nc(-c3ccccc3)c(-c3ccccc3)o2)c1
[1]; [11]
  inhibition: 18.4%
[2]; Compound Concentration 10.0 uM
  inhibition: 51%
[3]; Compound Concentration 10.0 uM
  inhibition: 1.64%
[4]
  inhibition: -0.35%
[5]; Compound Concentration 10.0 uM
  inhibition: -6.12%
[6]; Compound Concentration 10.0 uM
  inhibition: 8.82%
[7]; Compound Concentration 10.0 uM
  inhibition: -2.35%
[8]; Compound Concentration 10.0 uM
  inhibition: 49.9%
[9]
  inhibition: 20.4%
[10]; Compound Concentration 10.0 uM
  inhibition: 65%

## Cn1cc(Cl)c2c(Oc3c(F)cc(Nc4cc(Cl)nc(N)n4)cc3F)ccnc21
[1]; Compound Concentration 1.0 uM, Hit No
  inhibition: -2.36%
[1]; [11]
  inhibition: -9.66%
[2]; Compound Concentration 1.0 uM
  inhibition: 48.5%
[2]; Compound Concentration 10.0 uM
  inhibition: 53.4%
[3]; Compound Concentration 1.0 uM
  inhibition: -7.79%
[3]; Compound Concentration 10.0 uM
  inhibition: 4.86%
[4]
  inhibition: 2.57%
[5]; Compound Concentration 1.0 uM
  inhibition: 17.9%
[5]; Compound Concentration 10.0 uM
  inhibition: 27.1%
[6]; Compound Concentration 1.0 uM
  inhibition: 8.46%
[6]; Compound Concentration 10.0 uM
  inhibition: -1.29%
[7]; Compound Concentration 1.0 uM
  inhibition: 2.73%
[7]; Compound Concentration 10.0 uM
  inhibition: 11.7%
[8]; Compound Concentration 1.0 uM
  inhibition: -4.8%
[8]; Compound Concentration 10.0 uM
  inhibition: 64.2%
[9]
  inhibition: -1.23%
[10]; Compound Concentration 1.0 uM
  inhibition: 1.46%
[10]; Compound Concentration 10.0 uM
  inhibition: 40.4%

## FC(F)(F)c1ccccc1-c1cc(C(F)(F)F)c2[nH]c(C3=NOC4(CCCCC4)C3)nc2c1
[1]; [11]
  inhibition: -6.32%
[2]; Compound Concentration 10.0 uM
  inhibition: 6.11%
[3]; Compound Concentration 10.0 uM
  inhibition: 0.00926%
[4]
  inhibition: 0.669%
[5]; Compound Concentration 10.0 uM
  inhibition: -0.41%
[6]; Compound Concentration 10.0 uM
  inhibition: -6.04%
[7]; Compound Concentration 10.0 uM
  inhibition: -6.03%
[8]; Compound Concentration 10.0 uM
  inhibition: 2.91%
[9]
  inhibition: 0.733%
[10]; Compound Concentration 10.0 uM
  inhibition: -3.71%

## O=C(O)c1ccc(S(=O)(=O)N(Cc2ccc(OC(F)(F)F)cc2)c2ncc(C(F)(F)F)cc2Cl)cc1
[1]; [11]
  inhibition: 15.6%
[2]; Compound Concentration 10.0 uM
  inhibition: 35%
[3]; Compound Concentration 10.0 uM
  inhibition: 11.7%
[4]
  inhibition: 14.4%
[5]; Compound Concentration 10.0 uM
  inhibition: 2.42%
[6]; Compound Concentration 10.0 uM
  inhibition: 14.6%
[7]; Compound Concentration 10.0 uM
  inhibition: 2.72%
[8]; Compound Concentration 10.0 uM
  inhibition: 39.2%
[9]
  inhibition: 12.7%
[10]; Compound Concentration 10.0 uM
  inhibition: 61.2%

## CNC1(C)C2CCC(C2)C1(C)C (stereo not drawn)
[1]; [11]
  inhibition: -5.59%
[2]; Compound Concentration 10.0 uM
  inhibition: 10.2%
[3]; Compound Concentration 10.0 uM
  inhibition: -4.14%
[4]
  inhibition: -4.94%
[5]; Compound Concentration 10.0 uM
  inhibition: 1.51%
[6]; Compound Concentration 10.0 uM
  inhibition: -2.73%
[7]; Compound Concentration 10.0 uM
  inhibition: -5.36%
[8]; Compound Concentration 10.0 uM
  inhibition: -0.892%
[9]
  inhibition: 6.27%
[10]; Compound Concentration 10.0 uM
  inhibition: -4.75%

## COc1cc(NC(=O)CCN2CCC(OC(=O)Nc3ccccc3-c3ccccc3)CC2)c(Cl)cc1CNC[C@H](O)c1ccc(O)c2[nH]c(=O)ccc12
[1]; [11]
  inhibition: -7.57%
[2]; Compound Concentration 10.0 uM
  inhibition: 16.7%
[3]; Compound Concentration 10.0 uM
  inhibition: -7.76%
[4]
  inhibition: -2.98%
[5]; Compound Concentration 10.0 uM
  inhibition: 0.984%
[6]; Compound Concentration 10.0 uM
  inhibition: 9.99%
[7]; Compound Concentration 10.0 uM
  inhibition: -5.99%
[8]; Compound Concentration 10.0 uM
  inhibition: -6.36%
[9]
  inhibition: 7.51%
[10]; Compound Concentration 10.0 uM
  inhibition: 11.4%

## COc1cc(Br)c(S(=O)(=O)Nc2ccc(C(F)(F)F)c(O[C@@H]3CCN(C)C3)c2)cc1OC
[1]; [11]
  inhibition: -7.69%
[2]; Compound Concentration 10.0 uM
  inhibition: -0.305%
[3]; Compound Concentration 10.0 uM
  inhibition: -6.66%
[4]
  inhibition: -4.68%
[5]; Compound Concentration 10.0 uM
  inhibition: -0.0706%
[6]; Compound Concentration 10.0 uM
  inhibition: 13.8%
[7]; Compound Concentration 10.0 uM
  inhibition: -6.21%
[8]; Compound Concentration 10.0 uM
  inhibition: -1.76%
[9]
  inhibition: -9.93%
[10]; Compound Concentration 10.0 uM
  inhibition: -3.82%

## COc1ccccc1C(=O)Nc1cccc(NC(=O)c2cccc(C)c2)c1
[1]; [11]
  inhibition: -2.96%
[2]; Compound Concentration 10.0 uM
  inhibition: 19.8%
[3]; Compound Concentration 10.0 uM
  inhibition: -5.33%
[4]
  inhibition: -3.15%
[5]; Compound Concentration 10.0 uM
  inhibition: -5.33%
[6]; Compound Concentration 10.0 uM
  inhibition: 15.4%
[7]; Compound Concentration 10.0 uM
  inhibition: -7.92%
[8]; Compound Concentration 10.0 uM
  inhibition: 14.3%
[9]
  inhibition: 18.5%
[10]; Compound Concentration 10.0 uM
  inhibition: 8.28%

## FC(F)(F)Oc1ccc(-c2ccc3nnc(C(F)(F)F)n3c2)cc1
[1]; [11]
  inhibition: -7.36%
[2]; Compound Concentration 10.0 uM
  inhibition: -4.99%
[3]; Compound Concentration 10.0 uM
  inhibition: 0.158%
[4]
  inhibition: -5.19%
[5]; Compound Concentration 10.0 uM
  inhibition: -3.97%
[6]; Compound Concentration 10.0 uM
  inhibition: 27.8%
[7]; Compound Concentration 10.0 uM
  inhibition: -4.54%
[8]; Compound Concentration 10.0 uM
  inhibition: 3.41%
[9]
  inhibition: 7.52%
[10]; Compound Concentration 10.0 uM
  inhibition: -0.755%

## Nc1ncnc2c1ncn2[C@@H]1O[C@H](COP(=O)(O)OP(=O)(O)O)[C@@H](O)[C@H]1O
[1]; [11]
  inhibition: -9.66%
[2]; Compound Concentration 10.0 uM
  inhibition: 26.4%
[3]; Compound Concentration 10.0 uM
  inhibition: 8.75%
[4]
  inhibition: 1.69%
[5]; Compound Concentration 10.0 uM
  inhibition: -0.127%
[6]; Compound Concentration 10.0 uM
  inhibition: 11.3%
[7]; Compound Concentration 10.0 uM
  inhibition: -1.19%
[8]; Compound Concentration 10.0 uM
  inhibition: 10.8%
[9]
  inhibition: -6.47%
[10]; Compound Concentration 10.0 uM
  inhibition: 18.3%

Source: ChEMBL document CHEMBL5665443, “Enzyme Inhibitor Single Concentration assay results for EUbOPEN Chemogenomics Library” (2024)
